Tests used:
Assay type in all cases: in vivo
Barnyardgrass [1] = experiment: pre-emergence herbicide test; settings: Echinochloa crus-galli, pre-emergence, 0.25 lb/A; read-out: % plant inhibition
Outline: (§1)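 Read-out is percent inhibition at approximately 14 days after seeding and treating. Seeds sat on compacted topsoil beneath a cover layer containing compound in acetone or water, with greenhouse bottom-watering.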

Bedstraw Catchweed [2] = experiment: pre-emergence herbicide test; settings: 0.25 lb/A; for inhibition at 280.212 g/ha: Galium aparine, pre-emergence, read-out: % plant inhibition
Outline: as §1

Birdseye Speedwell [3] = experiment: pre-emergence herbicide test; settings: pre-emergence, 0.25 lb/A; read-out: % plant inhibition
Outline: as §1

Blackgrass [4] = experiment: pre-emergence herbicide test; settings: 0.25 lb/A; for inhibition at 280.212 g/ha: Alopecurus myosuroides, pre-emergence, read-out: % plant inhibition
Outline: as §1

Cocklebur [5] = experiment: pre-emergence herbicide test; settings: 0.25 lb/A; for inhibition at 280.212 g/ha: Xanthium strumarium, pre-emergence, read-out: % plant inhibition
Outline: as §1

Common Chickweed [6] = experiment: pre-emergence herbicide test; settings: pre-emergence, 0.25 lb/A; read-out: % plant inhibition
Outline: as §1

Corn [7] = experiment: pre-emergence herbicide test; settings: 0.25 lb/A; for inhibition at 280.212 g/ha: Zea mays, pre-emergence, read-out: % plant inhibition
Outline: as §1

Downy Brome [8] = experiment: pre-emergence herbicide test; settings: Bromus tectorum, pre-emergence, 0.25 lb/A; read-out: % plant inhibition
Outline: as §1

Giant Foxtail [9] = experiment: pre-emergence herbicide test; settings: Setaria faberi, pre-emergence, 0.25 lb/A; read-out: % plant inhibition
Outline: as §1

Green Foxtail [10] = experiment: pre-emergence herbicide test; settings: Setaria viridis, pre-emergence; 0.25 lb/A; read-out: % plant inhibition
Outline: as §1

Morning Glory [11] = experiment: pre-emergence herbicide test; settings: Ipomoea, pre-emergence, 0.25 lb/A; read-out: % plant inhibition
Outline: as §1

Rape [12] = experiment: pre-emergence herbicide test; settings: pre-emergence, 0.25 lb/A; read-out: % plant inhibition
Outline: as §1

Seedling Johnsongrass [13] = experiment: pre-emergence herbicide test; settings: Sorghum halepense, pre-emergence, 0.25 lb/A; read-out: % plant inhibition
Outline: as §1

Soybean [14] = experiment: pre-emergence herbicide test; settings: 0.25 lb/A; for inhibition at 280.212 g/ha: Glycine max, pre-emergence, read-out: % plant inhibition
Outline: as §1

Velvetleaf [15] = experiment: pre-emergence herbicide test; settings: Abutilon theophrasti, pre-emergence, 0.25 lb/A; read-out: % plant inhibition
Outline: as §1

Wheat [16] = experiment: pre-emergence herbicide test; settings: Triticum aestivum, pre-emergence, 0.25 lb/A; read-out: % plant inhibition
Outline: as §1

Wild Oats [17] = experiment: pre-emergence herbicide test; settings: 0.25 lb/A; for inhibition at 280.212 g/ha: Avena fatua, pre-emergence, read-out: % plant inhibition
Outline: as §1

Barnyardgrass [18] = experiment: post-emergence herbicide test; settings: Echinochloa crus-galli, post-emergence, 0.25 lb/A; read-out: % plant inhibition
Outline: (§2)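 Post-emergence activity is given as percent inhibition per species. Test compounds were atomizer-sprayed at 170.3 kPa, 1870 L/Ha carrier volume and roughly 0.4% v/v emulsifier onto greenhouse-raised plants aged two to three weeks, at the stated rates.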

Bedstraw Catchweed [19] = experiment: post-emergence herbicide test; settings: 0.25 lb/A; for inhibition at 280.212 g/ha: Galium aparine, post-emergence, read-out: % plant inhibition
Outline: as §2

Birdseye Speedwell [20] = experiment: post-emergence herbicide test; settings: post-emergence, 0.25 lb/A; read-out: % plant inhibition
Outline: as §2

Blackgrass [21] = experiment: post-emergence herbicide test; settings: 0.25 lb/A; for inhibition at 280.212 g/ha: Alopecurus myosuroides, post-emergence, read-out: % plant inhibition
Outline: as §2

Cocklebur [22] = experiment: post-emergence herbicide test; settings: Xanthium strumarium, post-emergence, 0.25 lb/A; read-out: % plant inhibition
Outline: as §2

Common Chickweed [23] = experiment: post-emergence herbicide test; settings: post-emergence, 0.25 lb/A; read-out: % plant inhibition
Outline: as §2

Corn [24] = experiment: post-emergence herbicide test; settings: 0.25 lb/A; for inhibition at 280.212 g/ha: Zea mays, post-emergence, read-out: % plant inhibition
Outline: as §2

Downy Brome [25] = experiment: post-emergence herbicide test; settings: 0.25 lb/A; for inhibition at 280.212 g/ha: Bromus tectorum, post-emergence, read-out: % plant inhibition
Outline: as §2

Giant Foxtail [26] = experiment: post-emergence herbicide test; settings: 0.25 lb/A; for inhibition at 280.212 g/ha: Setaria faberi, post-emergence, read-out: % plant inhibition
Outline: as §2

Green Foxtail [27] = experiment: post-emergence herbicide test; settings: Setaria viridis, post-emergence, 0.25 lb/A; read-out: % plant inhibition
Outline: as §2

Morning Glory [28] = experiment: post-emergence herbicide test; settings: 0.25 lb/A; for inhibition at 280.212 g/ha: Ipomoea, post-emergence, read-out: % plant inhibition
Outline: as §2

Rape [29] = experiment: post-emergence herbicide test; settings: post-emergence, 0.25 lb/A; read-out: % plant inhibition
Outline: as §2

Seedling Johnsongrass [30] = experiment: post-emergence herbicide test; settings: Sorghum halepense, post-emergence, 0.25 lb/A; read-out: % plant inhibition
Outline: as §2

Soybean [31] = experiment: post-emergence herbicide test; settings: 0.25 lb/A; for inhibition at 280.212 g/ha: Glycine max, post-emergence, read-out: % plant inhibition
Outline: as §2

Velvetleaf [32] = experiment: post-emergence herbicide test; settings: Abutilon theophrasti, post-emergence, 0.25 lb/A; read-out: % plant inhibition
Outline: as §2

Wheat [33] = experiment: post-emergence herbicide test; settings: Triticum aestivum, post-emergence, 0.25 lb/A; read-out: % plant inhibition
Outline: as §2

Wild Oats [34] = experiment: post-emergence herbicide test; settings: 0.25 lb/A; for inhibition at 280.212 g/ha: Avena fatua, post-emergence, read-out: % plant inhibition
Outline: as §2

SMILES	inhibition at 280.212 g/ha (Barnyardgrass [1]) [%]	inhibition at 280.212 g/ha (Birdseye Speedwell [3]) [%]	inhibition at 280.212 g/ha (Common Chickweed [6]) [%]	inhibition at 280.212 g/ha (Downy Brome [8]) [%]	inhibition at 280.212 g/ha (Giant Foxtail [9]) [%]	inhibition at 280.212 g/ha (Green Foxtail [10]) [%]	inhibition at 280.212 g/ha (Morning Glory [11]) [%]	inhibition at 280.212 g/ha (Rape [12]) [%]	inhibition at 280.212 g/ha (Seedling Johnsongrass [13]) [%]	inhibition at 280.212 g/ha (Velvetleaf [15]) [%]	inhibition at 280.212 g/ha (Wheat [16]) [%]	inhibition at 280.212 g/ha (Barnyardgrass [18]) [%]	inhibition at 280.212 g/ha (Birdseye Speedwell [20]) [%]	inhibition at 280.212 g/ha (Cocklebur [22]) [%]	inhibition at 280.212 g/ha (Common Chickweed [23]) [%]	inhibition at 280.212 g/ha (Green Foxtail [27]) [%]	inhibition at 280.212 g/ha (Rape [29]) [%]	inhibition at 280.212 g/ha (Seedling Johnsongrass [30]) [%]	inhibition at 280.212 g/ha (Velvetleaf [32]) [%]	inhibition at 280.212 g/ha (Wheat [33]) [%]	other results
Cc1c(-c2cc(C(=O)OCSC#N)c(Cl)cc2F)nn(C)c1C(F)(F)F [Compound 50]	25	35	35	5	0	10	0	0	0	40	0	5	75	60	60	25	15	0	90	10	inhibition at 280.212 g/ha (Bedstraw Catchweed [2]): 25%; inhibition at 280.212 g/ha (Blackgrass [4]): 5%; inhibition at 280.212 g/ha (Cocklebur [5]): 0%; inhibition at 280.212 g/ha (Corn [7]): 0%; inhibition at 280.212 g/ha (Soybean [14]): 0%; inhibition at 280.212 g/ha (Wild Oats [17]): 0%; inhibition at 280.212 g/ha (Bedstraw Catchweed [19]): 35%; inhibition at 280.212 g/ha (Blackgrass [21]): 5%; inhibition at 280.212 g/ha (Corn [24]): 5%; inhibition at 280.212 g/ha (Downy Brome [25]): 10%; inhibition at 280.212 g/ha (Giant Foxtail [26]): 0%; inhibition at 280.212 g/ha (Morning Glory [28]): 35%; inhibition at 280.212 g/ha (Soybean [31]): 7%; inhibition at 280.212 g/ha (Wild Oats [34]): 10%
Cc1c(-c2cc(C(=O)OCCC(C)C)c(Cl)cc2F)nn(C)c1C(F)(F)F [Compound 51]	50	90	70	35	90	100	15	5	80	90	0	60	98	85	75	80	20	85	100	12	% plant inhibition (Bedstraw Catchweed [2]): 55%; % plant inhibition (Blackgrass [4]): 20%; % plant inhibition (Cocklebur [5]): 0%; % plant inhibition (Corn [7]): 8%; % plant inhibition (Soybean [14]): 3%; % plant inhibition (Wild Oats [17]): 15%; % plant inhibition (Bedstraw Catchweed [19]): 40%; % plant inhibition (Blackgrass [21]): 45%; % plant inhibition (Corn [24]): 7%; % plant inhibition (Downy Brome [25]): 45%; % plant inhibition (Giant Foxtail [26]): 85%; % plant inhibition (Morning Glory [28]): 35%; % plant inhibition (Soybean [31]): 65%; % plant inhibition (Wild Oats [34]): 55%
CCOC(=O)C=C(COC(=O)c1cc(-c2nn(C)c(C(F)(F)F)c2C)c(F)cc1Cl)OC [Compound 44]	10	85	85	5	50	100	50	20	40	60	0	90	100	99	95	90	45	60	99	15	inhibition at 280.212 g/ha (Bedstraw Catchweed [2]): 40%; inhibition at 280.212 g/ha (Blackgrass [4]): 20%; inhibition at 280.212 g/ha (Cocklebur [5]): 0%; inhibition at 280.212 g/ha (Corn [7]): 0%; inhibition at 280.212 g/ha (Soybean [14]): 0%; inhibition at 280.212 g/ha (Wild Oats [17]): 5%; inhibition at 280.212 g/ha (Bedstraw Catchweed [19]): 100%; inhibition at 280.212 g/ha (Blackgrass [21]): 25%; inhibition at 280.212 g/ha (Corn [24]): 15%; inhibition at 280.212 g/ha (Downy Brome [25]): 35%; inhibition at 280.212 g/ha (Giant Foxtail [26]): 65%; inhibition at 280.212 g/ha (Morning Glory [28]): 80%; inhibition at 280.212 g/ha (Soybean [31]): 10%; inhibition at 280.212 g/ha (Wild Oats [34]): 25%
